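Test compounds were applied to cells in 96-well plates for 48 hours at 5 doses. GI50: concentration for 50% inhibition of growth.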 Calls of active or inactive are those of the source. No stated cut-off is given here; in the data, active = GI50 up to about 1.1 µM and inactive = higher.
Legend:
Assay in all cases: NCI tumour cell line growth inhibition, 48 h
SR = tested on: SR
OVCAR-5 = tested on: OVCAR-5
HCT-15 = tested on: HCT-15
NCI-H226 = tested on: NCI-H226
OVCAR-3 = tested on: OVCAR-3
MCF7 = tested on: MCF7
T47D = tested on: T47D
SF-295 = tested on: SF-295
HOP-62 = tested on: HOP-62
K562 = tested on: K562
MDA-MB-435 = tested on: MDA-MB-435
CCRF-CEM = tested on: CCRF-CEM
MDA-N = tested on: MDA-N
ACHN = tested on: ACHN
KM12 = tested on: KM12
PC-3 = tested on: PC-3
NCI/ADR-RES = tested on: NCI/ADR-RES
EKVX = tested on: EKVX
HOP-92 = tested on: HOP-92
SN12C = tested on: SN12C
MOLT-4 = tested on: MOLT-4
HCT-116 = tested on: HCT-116
M14 = tested on: M14
OVCAR-8 = tested on: OVCAR-8
MDA-MB-231 = tested on: MDA-MB-231
NCI-H460 = tested on: NCI-H460
UACC-62 = tested on: UACC-62
SK-MEL-28 = tested on: SK-MEL-28
Malme-3M = tested on: Malme-3M
SF-268 = tested on: SF-268
LOX IMVI = tested on: LOX IMVI
A549 = tested on: A549
SNB-75 = tested on: SNB-75
SK-MEL-5 = tested on: SK-MEL-5
SNB-19 = tested on: SNB-19
SW-620 = tested on: SW-620
NCI-H23 = tested on: NCI-H23
Hs-578T = tested on: Hs-578T
OVCAR-4 = tested on: OVCAR-4
786-0 = tested on: 786-0
UACC-257 = tested on: UACC-257
SK-MEL-2 = tested on: SK-MEL-2
TK-10 = tested on: TK-10
IGROV-1 = tested on: IGROV-1
HL-60 = tested on: HL-60
NCI-H522 = tested on: NCI-H522
SF-539 = tested on: SF-539
HT-29 = tested on: HT-29
DU-145 = tested on: DU-145
RPMI-8226 = tested on: RPMI-8226
COLO 205 = tested on: COLO 205
SK-OV-3 = tested on: SK-OV-3
UO-31 = tested on: UO-31
RXF 393 = tested on: RXF 393
CAKI-1 = tested on: CAKI-1
U-251 = tested on: U-251

Measured: GI50

COC(=O)C1(C(=O)OC)Cc2ccc(C)cc2C2=C1C(=O)c1ccccc1C2=O
inactive: SR 24.2 µM | OVCAR-5 21 µM | NCI-H226 > 100 µM | OVCAR-3 3.24 µM | MCF7 15 µM | T47D 7.71 µM | SF-295 21.2 µM | HOP-62 14.4 µM | K562 18.2 µM | MDA-MB-435 15.6 µM | CCRF-CEM 15.2 µM | MDA-N 16.5 µM | ACHN 16.5 µM | KM12 16.6 µM | PC-3 15.2 µM | NCI/ADR-RES 12.6 µM | EKVX 14.6 µM | HOP-92 20 µM | SN12C 19.8 µM | MOLT-4 8.51 µM | HCT-116 18.2 µM | M14 > 10 µM | OVCAR-8 13.3 µM | MDA-MB-231 16.7 µM | NCI-H460 40.6 µM | UACC-62 13.8 µM | SK-MEL-28 16.6 µM | Malme-3M 32 µM | SF-268 16 µM | LOX IMVI 14.9 µM | A549 29.9 µM | SNB-75 12.8 µM | SK-MEL-5 15 µM | SNB-19 58.6 µM | SW-620 19.8 µM | NCI-H23 18.2 µM | Hs-578T 24.6 µM | OVCAR-4 11.5 µM | 786-0 26.4 µM | UACC-257 16.5 µM | SK-MEL-2 11.7 µM | TK-10 57 µM | IGROV-1 19.4 µM | HL-60 31.6 µM | NCI-H522 15.1 µM | SF-539 23.9 µM | HT-29 21.7 µM | DU-145 20.2 µM
12.6 µM: HCT-15

Cc1cc(=O)oc2c(CNC(C(=O)O)C(C)O)c(O)ccc12 (stereo unspecified)
inactive: SR > 100 µM | OVCAR-5 > 100 µM | RPMI-8226 > 100 µM | NCI-H226 > 100 µM | OVCAR-3 > 100 µM | MCF7 > 100 µM | T47D > 100 µM | SF-295 > 100 µM | COLO 205 > 100 µM | SK-OV-3 > 100 µM | HOP-62 > 100 µM | K562 > 100 µM | MDA-MB-435 > 100 µM | CCRF-CEM > 100 µM | MDA-N > 100 µM | ACHN > 100 µM | KM12 > 100 µM | PC-3 > 100 µM | NCI/ADR-RES > 100 µM | EKVX > 100 µM | HOP-92 > 100 µM | SN12C > 100 µM | MOLT-4 > 100 µM | HCT-116 > 100 µM | M14 > 100 µM | UO-31 > 100 µM | OVCAR-8 > 100 µM | MDA-MB-231 > 100 µM | NCI-H460 > 100 µM | UACC-62 > 100 µM | SK-MEL-28 > 100 µM | Malme-3M 24.8 µM | RXF 393 > 100 µM | SF-268 > 100 µM | LOX IMVI > 100 µM | A549 > 100 µM | CAKI-1 > 100 µM | SNB-75 8.89 µM | SK-MEL-5 > 100 µM | SNB-19 > 100 µM | SW-620 > 100 µM | U-251 > 100 µM | NCI-H23 > 100 µM | Hs-578T 77.4 µM | OVCAR-4 > 100 µM | 786-0 > 100 µM | UACC-257 > 100 µM | SK-MEL-2 > 100 µM | TK-10 > 100 µM | IGROV-1 > 100 µM | HL-60 > 100 µM | NCI-H522 > 100 µM | SF-539 > 100 µM | HT-29 > 100 µM | DU-145 > 100 µM
> 100 µM: HCT-15

O=C1CS(=O)(=O)C(c2cccc(Oc3ccccc3)c2)N1c1cccc(Cl)c1Cl (stereo unspecified)
inactive: SR 18.7 µM | OVCAR-5 47.5 µM | NCI-H226 35.7 µM | OVCAR-3 21.5 µM | MCF7 6.11 µM | T47D 26.2 µM | SF-295 33.8 µM | COLO 205 26.9 µM | SK-OV-3 67 µM | HOP-62 40.6 µM | K562 16.6 µM | MDA-MB-435 19.7 µM | CCRF-CEM 10.7 µM | MDA-N 19.6 µM | ACHN 20.3 µM | KM12 26.7 µM | PC-3 26.4 µM | EKVX 23.8 µM | HOP-92 7.26 µM | SN12C 19.8 µM | MOLT-4 20.2 µM | HCT-116 22.4 µM | M14 39.1 µM | UO-31 29.5 µM | OVCAR-8 19.1 µM | MDA-MB-231 23.8 µM | NCI-H460 36.2 µM | UACC-62 13.5 µM | SK-MEL-28 51.4 µM | Malme-3M 24.3 µM | RXF 393 25.1 µM | SF-268 21.5 µM | LOX IMVI 17.7 µM | A549 > 100 µM | CAKI-1 31.3 µM | SNB-75 29.3 µM | SK-MEL-5 18.2 µM | SNB-19 39.5 µM | SW-620 28.8 µM | U-251 20 µM | Hs-578T 29.8 µM | OVCAR-4 20.4 µM | 786-0 15 µM | UACC-257 21 µM | SK-MEL-2 19.5 µM | TK-10 25.3 µM | HL-60 31 µM | NCI-H522 18 µM | SF-539 20.8 µM | HT-29 25.2 µM | DU-145 42.6 µM

From ChEMBL document CHEMBL1201862, “PubChem BioAssay data set” (2004)
